Experimental findings from ChEMBL document CHEMBL4002567, “Rational design and synthesis of 1,5-disubstituted tetrazoles as potent inhibitors of the MDM2-p53 interaction” (Eur J Med Chem, 2017) are described below.

Experiment [1] deals with T1, Protein Mdm4 (Homo sapiens, UniProt O15151).
T1 sequence (O15151 whole entry): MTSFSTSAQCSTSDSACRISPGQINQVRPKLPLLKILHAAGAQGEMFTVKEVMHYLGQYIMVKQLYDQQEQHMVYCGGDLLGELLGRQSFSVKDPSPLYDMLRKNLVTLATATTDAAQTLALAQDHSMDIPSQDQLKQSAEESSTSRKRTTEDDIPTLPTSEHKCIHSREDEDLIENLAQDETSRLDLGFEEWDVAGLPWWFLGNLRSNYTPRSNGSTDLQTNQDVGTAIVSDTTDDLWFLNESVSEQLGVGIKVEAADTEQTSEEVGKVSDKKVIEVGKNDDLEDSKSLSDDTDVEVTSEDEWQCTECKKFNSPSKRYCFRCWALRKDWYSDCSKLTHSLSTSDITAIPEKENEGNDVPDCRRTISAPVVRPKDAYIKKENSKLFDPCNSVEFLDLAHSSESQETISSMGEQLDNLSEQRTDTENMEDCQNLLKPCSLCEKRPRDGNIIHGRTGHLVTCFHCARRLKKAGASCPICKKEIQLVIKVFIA

Experiment [2] addresses E3 ubiquitin-protein ligase Mdm2 (Homo sapiens, UniProt Q00987).

Sequence of E3 ubiquitin-protein ligase Mdm2 (Q00987 whole entry): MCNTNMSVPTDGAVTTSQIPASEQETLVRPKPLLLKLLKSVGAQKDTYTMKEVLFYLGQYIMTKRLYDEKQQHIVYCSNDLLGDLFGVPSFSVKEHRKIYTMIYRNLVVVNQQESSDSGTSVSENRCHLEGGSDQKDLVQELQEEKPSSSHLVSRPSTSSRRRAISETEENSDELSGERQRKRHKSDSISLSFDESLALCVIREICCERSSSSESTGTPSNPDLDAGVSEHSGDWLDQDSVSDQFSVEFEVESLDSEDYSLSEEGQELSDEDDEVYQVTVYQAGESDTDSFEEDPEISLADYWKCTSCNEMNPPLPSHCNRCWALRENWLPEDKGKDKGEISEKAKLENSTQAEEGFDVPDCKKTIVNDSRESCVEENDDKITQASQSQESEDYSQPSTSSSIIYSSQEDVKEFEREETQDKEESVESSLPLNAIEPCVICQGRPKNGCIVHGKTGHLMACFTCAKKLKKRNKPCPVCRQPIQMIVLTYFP

On to `CCOC(=O)c1[nH]c2cc(Cl)ccc2c1C(NCC1CCCCC1)c1nnnn1Cc1ccc(Cl)cc1` (stereo unspecified), for which the Ki result in experiment [1] and in experiment [2] was “Not Active” each time.

As for `CCCCCNC(c1c(C(=O)O)[nH]c2cc(Cl)ccc12)c1nnnn1-c1ccc(OCc2ccccc2Br)cc1` (stereo unspecified), the Ki entry in experiment [1] was “Not Active”.

Consider `CCCCCNC(c1c(C(=O)OCC)[nH]c2cc(Cl)ccc12)c1nnnn1-c1ccc(C(C)C)cc1` (stereo unspecified), for which the Ki result in experiment [1] and in experiment [2] was “Not Active” each time.

Take `CCCCCNC(c1c(C(=O)OCC)[nH]c2cc(Cl)ccc12)c1nnnn1-c1ccc(OCc2ccccc2Br)cc1` (stereo unspecified): the Ki result in experiment [1] and in experiment [2] was “Not Active” in each case.

On to `O=C(O)c1[nH]c2cc(Cl)ccc2c1C(NCC1CCCCC1)c1nnnn1Cc1ccc(OCc2ccccc2F)cc1` (stereo unspecified), for which, in experiment [1], the Ki entry is reported as “Not Active”.

In the case of `CCCCCNC(c1c(C(=O)O)[nH]c2cc(Cl)ccc12)c1nnnn1Cc1ccc(OCc2ccccc2Br)cc1` (stereo unspecified), the Ki entry in experiment [1] is “Not Active”.

As for `O=C(O)c1[nH]c2cc(Cl)ccc2c1C(NCc1ccc(Cl)cc1)c1nnnn1Cc1ccc(OCc2ccccc2Br)cc1` (stereo unspecified), the Ki result in experiment [1] is recorded as “Not Active”.

Consider `O=C(O)c1[nH]c2cc(Cl)ccc2c1C(NC1CCCCCC1)c1nnnn1-c1cccc(OCc2ccccc2)c1` (stereo unspecified), for which the Ki result in experiment [1] was “Not Active”.

`CCOC(=O)c1[nH]c2cc(Cl)ccc2c1C(NC1CCCCC1)c1nnnn1-c1ccc(OCc2ccccc2)cc1` (stereo unspecified): the inhibitory constant (Ki) result in experiment [1] and in experiment [2] was “Not Active” throughout.

Consider `CCOC(=O)c1[nH]c2cc(Cl)ccc2c1C(NC1CCCCCC1)c1nnnn1-c1ccc(OCc2ccccc2)cc1` (stereo unspecified), for which the Ki result in experiment [1] and in experiment [2] was “Not Active” throughout.

Take `O=C(O)c1[nH]c2cc(Cl)ccc2c1C(NC1C2CC3CC(C2)CC1C3)c1nnnn1-c1ccc(OCc2ccccc2Br)cc1` (stereo unspecified): in experiment [1], the Ki result is listed as “Not Active”.

Regarding `CCCCCNC(c1c(C(=O)O)[nH]c2cc(Cl)ccc12)c1nnnn1-c1ccc(Cl)cc1` (stereo unspecified), the Ki entry in experiment [1] is “Not Active”.

As to `O=C(O)c1[nH]c2cc(Cl)ccc2c1C(NC1CCCC1)c1nnnn1-c1cccc(Oc2ccccc2)c1` (stereo unspecified), in experiment [1], the Ki entry is reported as “Not Active”.

On to `O=C(O)c1[nH]c2cc(Cl)ccc2c1C(NCc1ccc(Cl)cc1)c1nnnn1Cc1ccc(Cl)cc1` (stereo unspecified), for which the Ki entry in experiment [1] is on record as “Not Active”.

Regarding `CCOC(=O)c1[nH]c2cc(Cl)ccc2c1C(NCc1ccc(Cl)cc1)c1nnnn1Cc1ccc(OCc2ccccc2Br)cc1` (stereo unspecified), the Ki result in experiment [1] and in experiment [2] was “Not Active” each time.

Consider `O=C(O)c1[nH]c2cc(Cl)ccc2c1C(NC1CCCCC1)c1nnnn1-c1cccc(OCc2ccccc2)c1` (stereo unspecified), for which the Ki result in experiment [1] was “Not Active”.

As for `CCOC(=O)c1[nH]c2cc(Cl)ccc2c1C(NCc1ccc(Cl)cc1)c1nnnn1Cc1ccc(Cl)cc1` (stereo unspecified), the Ki entry in experiment [1] and in experiment [2] was “Not Active” each time.

Take `CCCCCNC(c1c(C(=O)OCC)[nH]c2cc(Cl)ccc12)c1nnnn1-c1ccc(OCc2ccc(Br)cc2)cc1` (stereo unspecified): the Ki result in experiment [1] and in experiment [2] was “Not Active” each time.

In the case of `CCCCCNC(c1c(C(=O)O)[nH]c2cc(Cl)ccc12)c1nnnn1-c1ccc(C(C)C)cc1` (stereo unspecified), the inhibitory constant (Ki) entry in experiment [1] is reported as “Not Active”.

On to `O=C(O)c1[nH]c2cc(Cl)ccc2c1C(NCC1CCCCC1)c1nnnn1-c1ccc(F)c(Cl)c1` (stereo unspecified), for which the Ki entry in experiment [1] is reported as “Not Active”.

For `O=C(O)c1[nH]c2cc(Cl)ccc2c1C(NC1CCCC1)c1nnnn1-c1ccc(OCc2ccccc2)cc1` (stereo unspecified), the Ki result in experiment [1] is recorded as “Not Active”.

For the compound `O=C(O)c1[nH]c2cc(Cl)ccc2c1C(NCC1CCCCC1)c1nnnn1-c1ccc(OCc2ccc(Br)cc2)cc1` (stereo unspecified), the Ki result in experiment [1] is “Not Active”.

Consider `O=C(O)c1[nH]c2cc(Cl)ccc2c1C(NC1CCC1)c1nnnn1-c1ccc(OCc2ccccc2Br)cc1` (stereo unspecified), for which the Ki entry in experiment [1] is reported as “Not Active”.

Regarding `CCOC(=O)c1[nH]c2cc(Cl)ccc2c1C(NC1CCC1)c1nnnn1-c1ccc(OCc2ccccc2Br)cc1` (stereo unspecified), the Ki entry in experiment [1] and in experiment [2] was “Not Active” each time.

`CCOC(=O)c1[nH]c2cc(Cl)ccc2c1C(NC1CCCCCC1)c1nnnn1-c1cccc(Oc2ccccc2)c1` (stereo unspecified): the Ki result in experiment [1] and in experiment [2] was “Not Active” throughout.

Consider `CCOC(=O)c1[nH]c2cc(Cl)ccc2c1C(NCC1CCCCC1)c1nnnn1-c1ccc(OCc2c(Cl)cccc2Cl)cc1` (stereo unspecified), for which the inhibitory constant (Ki) entry in experiment [1] and in experiment [2] was “Not Active” throughout.

Turning to `CCCCCNC(c1c(C(=O)OCC)[nH]c2cc(Cl)ccc12)c1nnnn1Cc1ccc(OCc2ccccc2Br)cc1` (stereo unspecified), the Ki result in experiment [1] and in experiment [2] was “Not Active” each time.

On to `CCCCCNC(c1c(C(=O)OCC)[nH]c2cc(Cl)ccc12)c1nnnn1-c1ccc(F)c(Cl)c1` (stereo unspecified), for which the Ki result in experiment [1] and in experiment [2] was “Not Active” throughout.

As to `CCOC(=O)c1[nH]c2cc(Cl)ccc2c1C(NCC1CCCCC1)c1nnnn1-c1ccc(F)c(Cl)c1` (stereo unspecified), the Ki entry in experiment [1] and in experiment [2] was “Not Active” throughout.

For the compound `CCCCCNC(c1c(C(=O)O)[nH]c2cc(Cl)ccc12)c1nnnn1Cc1ccc(Cl)cc1` (stereo unspecified), the Ki result in experiment [1] is listed as “Not Active”.

On to `CCCCCNC(c1c(C(=O)O)[nH]c2cc(Cl)ccc12)c1nnnn1Cc1ccc(OCc2ccccc2Cl)cc1` (stereo unspecified), for which, in experiment [1], the Ki entry was “Not Active”.

As to `O=C(O)c1[nH]c2cc(Cl)ccc2c1C(NCC1CCCCC1)c1nnnn1-c1ccc(OCc2c(Cl)cccc2Cl)cc1` (stereo unspecified), the Ki entry in experiment [1] is “Not Active”.

As for `O=C(O)c1[nH]c2cc(Cl)ccc2c1C(NCC1CCCCC1)c1nnnn1Cc1ccc(Cl)cc1` (stereo unspecified), the Ki result in experiment [1] is given as “Not Active”.

Turning to `O=C(O)c1[nH]c2cc(Cl)ccc2c1C(NC1CCCCC1)c1nnnn1-c1ccc(OCc2ccccc2)cc1` (stereo unspecified), the Ki entry in experiment [1] is reported as “Not Active”.

With `CCOC(=O)c1[nH]c2cc(Cl)ccc2c1C(NCC1CCCCC1)c1nnnn1Cc1ccc(OCc2ccccc2Cl)cc1` (stereo unspecified), the Ki result in experiment [1] and in experiment [2] was “Not Active” in each case.

`CCOC(=O)c1[nH]c2cc(Cl)ccc2c1C(NCC1CCCCC1)c1nnnn1-c1ccc(OCc2ccccc2Br)cc1` (stereo unspecified): the Ki result in experiment [1] and in experiment [2] was “Not Active” each time.

For `O=C(O)c1[nH]c2cc(Cl)ccc2c1C(NCC1CCCCC1)c1nnnn1-c1ccc(OCc2ccccc2Br)cc1` (stereo unspecified), the Ki entry in experiment [1] is “Not Active”.

Consider `CCOC(=O)c1[nH]c2cc(Cl)ccc2c1C(NC1CCCCC1)c1nnnn1-c1cccc(OCc2ccccc2)c1` (stereo unspecified), for which the Ki result in experiment [1] and in experiment [2] was “Not Active” in each case.

As for `CCOC(=O)c1[nH]c2cc(Cl)ccc2c1C(NCC1CCCCC1)c1nnnn1-c1ccc(OCc2ccc(Br)cc2)cc1` (stereo unspecified), the Ki entry in experiment [1] and in experiment [2] was “Not Active” in each case.

Regarding `CCOC(=O)c1[nH]c2cc(Cl)ccc2c1C(NCC1CCCCC1)c1nnnn1Cc1ccc(OCc2ccccc2Br)cc1` (stereo unspecified), the inhibitory constant (Ki) entry in experiment [1] and in experiment [2] was “Not Active” each time.

Regarding `O=C(O)c1[nH]c2cc(Cl)ccc2c1C(NC1CCCCC1)c1nnnn1-c1cccc(Oc2ccccc2)c1` (stereo unspecified), the Ki entry in experiment [1] was “Not Active”.

For the compound `O=C(O)c1[nH]c2cc(Cl)ccc2c1C(NCC1CCCCC1)c1nnnn1Cc1ccc(OCc2ccccc2Br)cc1` (stereo unspecified), the Ki entry in experiment [1] is “Not Active”.

As for `O=C(O)c1[nH]c2cc(Cl)ccc2c1C(NCC1CCCCC1)c1nnnn1Cc1ccc(OCc2ccccc2Cl)cc1` (stereo unspecified), in experiment [1], the Ki result is “Not Active”.

Regarding `CCCCCNC(c1c(C(=O)OCC)[nH]c2cc(Cl)ccc12)c1nnnn1Cc1ccc(Cl)cc1` (stereo unspecified), the Ki result in experiment [1] and in experiment [2] was “Not Active” each time.

Consider `CCCCCNC(c1c(C(=O)O)[nH]c2cc(Cl)ccc12)c1nnnn1-c1ccc(OCc2c(Cl)cccc2Cl)cc1` (stereo unspecified), for which the Ki result in experiment [1] is “Not Active”.

In the case of `O=C(O)c1[nH]c2cc(Cl)ccc2c1C(NC1CCCCCC1)c1nnnn1-c1cccc(Oc2ccccc2)c1` (stereo unspecified), in experiment [1], the Ki entry is on record as “Not Active”.

Turning to `CCCCCNC(c1c(C(=O)O)[nH]c2cc(Cl)ccc12)c1nnnn1-c1ccc(F)c(Cl)c1` (stereo unspecified), the Ki entry in experiment [1] is “Not Active”.

Turning to `CCOC(=O)c1[nH]c2cc(Cl)ccc2c1C(NC1CCCCC1)c1nnnn1-c1cccc(Oc2ccccc2)c1` (stereo unspecified), the Ki result in experiment [1] and in experiment [2] was “Not Active” throughout.

As for `CCCCCNC(c1c(C(=O)OCC)[nH]c2cc(Cl)ccc12)c1nnnn1Cc1ccc(OCc2ccccc2Cl)cc1` (stereo unspecified), the Ki result in experiment [1] and in experiment [2] was “Not Active” throughout.

As for `CCCCCNC(c1c(C(=O)OCC)[nH]c2cc(Cl)ccc12)c1nnnn1-c1ccc(OCc2c(Cl)cccc2Cl)cc1` (stereo unspecified), the Ki entry in experiment [1] and in experiment [2] was “Not Active” throughout.

Take `CCOC(=O)c1[nH]c2cc(Cl)ccc2c1C(NC1CCCC1)c1nnnn1-c1cccc(Oc2ccccc2)c1` (stereo unspecified): the Ki result in experiment [1] and in experiment [2] was “Not Active” throughout.

On to `CCCCCNC(c1c(C(=O)O)[nH]c2cc(Cl)ccc12)c1nnnn1-c1ccc(OCc2ccc(Br)cc2)cc1` (stereo unspecified), for which, in experiment [1], the Ki entry was “Not Active”.

In the case of `CCCCCNC(c1c(C(=O)OCC)[nH]c2cc(Cl)ccc12)c1nnnn1Cc1ccc(OCc2ccccc2F)cc1` (stereo unspecified), the Ki result in experiment [1] is “Not Active”.

In the case of `CCOC(=O)c1[nH]c2cc(Cl)ccc2c1C(NCC1CCCCC1)c1nnnn1-c1ccc(Cl)cc1` (stereo unspecified), the Ki in experiment [2] (read-out: Ki) was 117 µM.

As for `O=C(O)c1[nH]c2cc(Cl)ccc2c1C(NC1CCCC1)c1nnnn1-c1cccc(OCc2ccccc2)c1` (stereo unspecified), the Ki entry in experiment [1] is “Not Active”.

Take `CC(C)c1ccc(-n2nnnc2C(NCC2CCCCC2)c2c(C(=O)O)[nH]c3cc(Cl)ccc23)cc1` (stereo unspecified): the Ki result in experiment [1] is reported as “Not Active”.

For `O=C(O)c1[nH]c2cc(Cl)ccc2c1C(NC1CCCCCC1)c1nnnn1-c1ccc(OCc2ccccc2)cc1` (stereo unspecified), in experiment [1], the Ki entry was “Not Active”.
